{
  "source": "patent US8575170B2",
  "about": "“Flurbiprofen analogs and methods of use in treating cancer” (The Regents of the Unversity of Colorado, a body corporate, priority 2010, dated 2013)",
  "key": {"HADF-2": {"tested_on": "HADF-2", "assay": "MTT cell viability, HADF-2", "format": "cell-based", "conditions": "Pancreatic cancer cell, 96 h; Pancreatic cancer cells HADF-2; 4 days incubation", "text": "(§1) The ability of the flurbiprofen analog compounds of the invention to inhibit cancer cell growth and survival (viability) in a variety of cancer lines was examined in a standard MTT assay for cell viability, as detailed in Example 2.\n(§2) Similar results were obtained for the effect of the B1031 compound on the 14 pancreatic tumor cells lines shown in Table 3 below, where the dose dependent effect of the compound on survival of the pancreatic cancer cell lines is shown in FIG. 5.\n(§3) The studies reported in Tables 1-3 above were carried out by incubating the cells in the test compound for four days, under standard cell-culture conditions, and measuring cell survival on day 5 (see Example 2).\n(§4) Cell growth and survival following treatment with N—[(S)-2-Fluoro-α-methyl-4-biphenylacetyl]-[L-(4-phenylphenyl)alanine]-N-(2,2,6,6-tetramethyl-4-piperidinyl)amide (GCBH-110=B1031; (S)-Fmba-L-Bip-Atmp) were measured by a rapid colorimetric assay based on the tetrazolium salt MTT (3-(4,5-dimethylthiazol-2-yl)-2,5-diphenyl tetrazolium bromide) (Mosmann, J. Immunol. Methods 65: 55-63, 1983, with minor modifications).\n(§5) Briefly, approximately 1,000-5,000 cancer cells from 15 different cancer cells lines were plated in 100 μL of growth medium in 96-well flat-bottomed microtiter plates. Cells were incubated overnight to allow recovery. […] Absorbance was immediately determined using a scanning multiwell plate reader."}, "UMSCC22B": {"tested_on": "UMSCC22B", "assay": "MTT cell viability, UMSCC22B", "format": "cell-based", "conditions": "Homo sapiens; Head and neck cancer cell line UMSCC22B", "method": "as §1\n(§6) A similar study was conducted on 14 […] cancer cell lines, identified in Table 2.\nas §4\n(§7) Briefly, approximately 1,000-5,000 cancer cells from 15 different cancer cells lines were plated in 100 μL of growth medium in 96-well flat-bottomed microtiter plates. Cells were incubated overnight to allow recovery. Compounds to be tested were added to the cells in triplicate in a range of concentrations and the cells were incubated at 37° C., 5% CO2, with 100% humidity. Control cells were treated in the same way without antagonists. […] Plates were incubated for 4 days, allowing sufficient time for cell replication and compound-induced cell death to occur. […] Absorbance was immediately determined using a scanning multiwell plate reader. […]"}, "HN31": {"tested_on": "HN31", "assay": "MTT cell viability, HN31", "format": "cell-based", "conditions": "Head and neck cancer cell line HN31", "method": "as §1, §6, §4, §7"}, "[1]": {"tested_on": "15 different cancer cells lines", "assay": "MTT cell viability, 15 different cancer cell lines (FIG. 1)", "format": "cell-based", "conditions": "96 h, several cancer cell lines, 4 days, read-out: concentrations causing 50% cell death", "method": "as §4\n(§8) Briefly, approximately 1,000-5,000 cancer cells from 15 different cancer cells lines were plated in 100 μL of growth medium in 96-well flat-bottomed microtiter plates. Cells were incubated overnight to allow recovery. Compounds to be tested were added to the cells in triplicate in a range of concentrations and the cells were incubated at 37° C., 5% CO2, with 100% humidity. Control cells were treated in the same way without antagonists. […] Plates were incubated for 4 days, allowing sufficient time for cell replication and compound-induced cell death to occur. On day 5, 25 μL of a 2 mg/mL solution of MTT (Sigma) dissolved in RMPI-1640 was added to each well. The plate was incubated for 4 h at 37° C. The supernatant liquid was removed and the blue formazan complex was dissolved by adding 100 μL of 0.02 N HCl in 75% isopropanol to all wells. Absorbance was immediately determined using a scanning multiwell plate reader."}, "[2]": {"assay": "Solubility of flurbiprofen analog compounds", "format": "physicochemical", "conditions": "medium in which the compound is soluble, Table 5"}, "H460b": {"tested_on": "H460b", "assay": "MTT cell viability, H460b", "format": "cell-based", "conditions": "96 h; Large Cell lung cell line H460b; 4 days incubation", "method": "as §1, §3, §4\n(§9) Briefly, approximately 1,000-5,000 cancer cells from 15 different cancer cells lines were plated in 100 μL of growth medium in 96-well flat-bottomed microtiter plates. Cells were incubated overnight to allow recovery. Compounds to be tested were added to the cells in triplicate in a range of concentrations and the cells were incubated at 37° C., 5% CO2, with 100% humidity. Control cells were treated in the same way without antagonists. […] Absorbance was immediately determined using a scanning multiwell plate reader."}, "H417": {"tested_on": "H417", "assay": "MTT cell viability, H417", "format": "cell-based", "conditions": "Homo sapiens, NCI-H417, 96 h; SCLC lung cell line H417; 4 days incubation", "method": "as §1, §3, §4, §9"}, "UMSCC10A": {"tested_on": "UMSCC10A", "assay": "MTT cell viability, UMSCC10A", "format": "cell-based", "conditions": "UMSCC-10A; Head and neck cancer cell line UMSCC10A", "method": "as §1, §6, §4, §7"}, "MSK921": {"tested_on": "MSK921", "assay": "MTT cell viability, MSK921", "format": "cell-based", "conditions": "Head and neck cancer cell line MSK921", "method": "as §1, §6, §4, §7"}, "SW1990": {"tested_on": "SW1990", "assay": "MTT cell viability, SW1990", "format": "cell-based", "conditions": "Homo sapiens, 96 h; Pancreatic cancer cells SW1990; 4 days incubation", "text": "as §1, §2, §3, §4, §5"}, "S84": {"tested_on": "S84", "assay": "MTT cell viability, S84", "format": "cell-based", "conditions": "Head and neck cancer cell line S84", "method": "as §1, §6, §4, §7"}, "H1435a": {"tested_on": "H1435a", "assay": "MTT cell viability, H1435a", "format": "cell-based", "conditions": "96 h; Adenocarcinoma lung cell line H1435a; 4 days incubation", "method": "as §1, §3, §4, §9"}, "H1264": {"tested_on": "H1264", "assay": "MTT cell viability, H1264", "format": "cell-based", "conditions": "96 h; Adenosquamous lung cell line H1264; 4 days incubation", "method": "as §1, §3, §4, §9"}, "UMSCC19": {"tested_on": "UMSCC19", "assay": "MTT cell viability, UMSCC19", "format": "cell-based", "conditions": "Head and neck cancer cell line UMSCC19", "method": "as §1, §6, §4, §7"}, "1586": {"tested_on": "1586", "assay": "MTT cell viability, 1586", "format": "cell-based", "conditions": "Head and neck cancer cell line 1586", "method": "as §1, §6, §4, §7"}, "H1703": {"tested_on": "H1703", "assay": "MTT cell viability, H1703", "format": "cell-based", "conditions": "Homo sapiens, NCI-H1703, 96 h; Adenosquamous lung cell line H1703; 4 days incubation", "method": "as §1, §3, §4, §9"}, "L33": {"tested_on": "L33", "assay": "MTT cell viability, L33", "format": "cell-based", "conditions": "Pancreatic cancer cell, 96 h; Pancreatic cancer cells L33; 4 days incubation", "text": "as §1, §2, §3, §4, §5"}, "H2122": {"tested_on": "H2122", "assay": "MTT cell viability, H2122 lung carcinoma cell line", "format": "cell-based", "conditions": "for IC50: Homo sapiens", "method": "as §1\nThe IC50 values given in Tables 1-4 were measured using the B1031 ([…]) compound) shown in Section IIB above. To confirm the generality of the results with respect to other fluribprofen analogs prepared in accordance with the invention, IC50 values for the other 11 analog compounds given in Section IIB were similarly determined for the H2122 lung carcinoma cell line.\nas §3, §4, §8"}, "lung cancer cell lines": {"tested_on": "lung cancer cell lines", "assay": "MTT cell viability, panel of lung cancer cell lines", "format": "cell-based", "text": "as §1\nIn one group of studies, the effect of compound B1031 (compound GCBH-110 above) on a variety of lung cancer cells lines identified in Tables 1A-1C was investigated FIGS. 1 and 2 are dose-response curves, showing the change in percent survival as a function of compound concentration, after four days incubation in the presence of the compound for the various cell lines tested (identified in Tables 1A-1C below). […] The 12 cell lines shown in Table 1A are all adenocarcinoma lines, a type of non-small cell lung carcinoma; the 11 cell lines shown in Table 1B, identified as adenosquamous, large cell, mesothelioma, squamous, and squaous mesothelioma, are non-small cell lung carcinoma lines; and the 7 cell lines shown in Table 1C are all small-cell lung carcinoma cell lines.\nas §4, §8\nSimilarly, cell growth and survival following treatment with GCBH-110=B1031 was tested using the same MTT assay in 17 lung cancer cell lines. GCBH-110=B1031 caused 50% cell death at concentrations between about 0.1 μM and about 2 μM under these conditions (FIG. 2)."}},
  "note": "Read-outs that look alike come from different tables or passages of the source.",
  "data": [
    {"smiles": "C[C@H](C(=O)N[C@@H](Cc1ccc(-c2ccccc2)cc1)C(=O)NC1CC(C)(C)NC(C)(C)C1)c1ccc(-c2ccccc2)c(F)c1", "note": "[GCBH-110, N—[(S)-2-Fluoro-α-methyl-4-biphenylacetyl]-[L-(4-phenylphenyl)alanine]-N-(2,2,6,6-tetramethyl-4-piperidinyl)amide]", "values": [
      {"measurement": "IC50", "setting": "HADF-2", "result": 700, "unit": "nM"},
      {"measurement": "IC50", "setting": "UMSCC22B", "result": 300, "unit": "nM"},
      {"measurement": "IC50", "setting": "HN31", "result": 540, "unit": "nM"},
      {"measurement": "IC50", "setting": "[1]", "result": "100 to 1000", "unit": "nM"},
      {"measurement": "Solubility", "setting": "[2]", "result": 50, "unit": "% DMSO"},
      {"measurement": "IC50", "setting": "H460b", "result": 400, "unit": "nM"},
      {"measurement": "IC50", "setting": "H417", "result": 1400, "unit": "nM"},
      {"measurement": "IC50", "setting": "UMSCC10A", "result": 200, "unit": "nM"},
      {"measurement": "IC50", "setting": "MSK921", "result": 770, "unit": "nM"},
      {"measurement": "IC50", "setting": "SW1990", "result": 1500, "unit": "nM"},
      {"measurement": "IC50", "setting": "S84", "result": 230, "unit": "nM"},
      {"measurement": "IC50", "setting": "H1435a", "result": 110, "unit": "nM"},
      {"measurement": "IC50", "setting": "H1264", "result": 630, "unit": "nM"},
      {"measurement": "IC50", "setting": "UMSCC19", "result": 2000, "unit": "nM"},
      {"measurement": "IC50", "setting": "1586", "result": 1500, "unit": "nM"},
      {"measurement": "IC50", "setting": "H1703", "result": 360, "unit": "nM"},
      {"measurement": "IC50", "setting": "L33", "result": 700, "unit": "nM"},
      {"measurement": "activity in inhibiting H2122 cells relative to Aza-dC", "setting": "H2122; H2122 lung cancer cell line, versus DNA demethylase inhibitor Aza-dC", "result": "many-fold more active"},
      {"measurement": "activity in inhibiting H2122 cells relative to Syn275 (fold less active)", "setting": "H2122; H2122 lung cancer cell line, versus HDACi Syn275", "result": "about 4 fold"},
      {"measurement": "IC50", "setting": "H2122; NCI-H2122, 96 h, Adenocarcinoma lung cell line H2122, 4 days incubation, read-out: IC50", "result": 150, "unit": "nM"},
      {"measurement": "IC50", "setting": "H2122; NCI-H2122, IC50 values for the H2122 lung carcinoma cell line, Table 5, read-out: H2122 In vitro", "result": 150, "unit": "nM"},
      {"measurement": "IC50", "setting": "lung cancer cell lines; 17 lung cancer cell lines, FIG. 2, read-out: concentrations causing 50% cell death", "result": "100 to 2000", "unit": "nM"},
      {"measurement": "IC50", "setting": "lung cancer cell lines; 96 h, FIGS. 1 and 2, four days incubation, read-out: compound concentrations effective to produce 50% cell death", "result": "100 to 2000", "unit": "nM"},
      {"measurement": "IC50", "setting": "lung cancer cell lines; most of the lung cancer cell lines of Tables 1A-1C, read-out: IC50 value, most cell lines", "result": "< 500", "unit": "nM"},
      {"measurement": "IC50", "setting": "lung cancer cell lines; span over the 32 lung cancer cell lines of Tables 1A-1C, read-out: IC50 values", "result": "100 to 1800", "unit": "nM"},
      {"measurement": "IC50 fold lower than flurbiprofen (anti-cancer activity relative to flurbiprofen)", "setting": "lung cancer cell lines; variety of lung carcinoma cells, FIG. 9", "result": "about 1000 fold"}
    ]}
  ]
}
